# Assay results reported in ChEMBL document CHEMBL1201862, “PubChem BioAssay data set” (2004).
# The source made the active and inactive calls.
# Columns and labels:
# [1] = molecular target: Troponin, cardiac muscle (Homo sapiens, UniProt P19429+P45379+P63316); test: Fluorescence-based biochemical high throughput dose response assay for activators of the calcium sensitivity of cardiac Regulated Thin Filaments (RTF). [Related pubchem assays (depositor defined):AID493008, AID493018, AID504382, AID504383]; type: protein-complex assay
# [2] = molecular target: T1, E3 ubiquitin-protein ligase XIAP (Homo sapiens, UniProt P98170); test: small molecules displacing peptide from XIAP – biochemical, IAP family, fluorescence polarization (AID 1018); type: functional
# [3] = molecular target: T1, E3 ubiquitin-protein ligase XIAP; test: Counter Screen using XIAP-Bir3 for Chemical Antagonists of Bir1/2 domains of IAP-family anti-apoptotic proteins. [Related pubchem assays (depositor defined):AID1018, AID1449, AID1514, AID1638, AID1749, AID1750, AID488957, AID488963]
# [4] = molecular target: T2, Corticotropin-releasing factor receptor 2/Corticotropin-releasing factor-binding protein (Homo sapiens, UniProt P24387+Q13324); test: activators of CRF receptor 2 with binding protein – uHTS hits, confirmation (AID 602473); type: functional; settings: read-out: EC50_Mean
# T2 sequence (Q13324 whole entry): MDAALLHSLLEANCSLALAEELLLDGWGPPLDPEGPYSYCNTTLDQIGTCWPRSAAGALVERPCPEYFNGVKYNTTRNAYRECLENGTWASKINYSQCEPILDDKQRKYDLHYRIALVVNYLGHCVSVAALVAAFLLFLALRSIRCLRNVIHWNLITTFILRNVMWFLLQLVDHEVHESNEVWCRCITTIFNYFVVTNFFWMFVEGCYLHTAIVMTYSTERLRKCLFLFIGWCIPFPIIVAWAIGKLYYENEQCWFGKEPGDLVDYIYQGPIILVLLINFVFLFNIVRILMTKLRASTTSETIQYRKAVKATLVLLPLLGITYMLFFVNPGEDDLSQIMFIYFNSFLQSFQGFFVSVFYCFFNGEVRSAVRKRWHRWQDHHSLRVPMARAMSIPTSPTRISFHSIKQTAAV
# T2 sequence (P24387 whole entry): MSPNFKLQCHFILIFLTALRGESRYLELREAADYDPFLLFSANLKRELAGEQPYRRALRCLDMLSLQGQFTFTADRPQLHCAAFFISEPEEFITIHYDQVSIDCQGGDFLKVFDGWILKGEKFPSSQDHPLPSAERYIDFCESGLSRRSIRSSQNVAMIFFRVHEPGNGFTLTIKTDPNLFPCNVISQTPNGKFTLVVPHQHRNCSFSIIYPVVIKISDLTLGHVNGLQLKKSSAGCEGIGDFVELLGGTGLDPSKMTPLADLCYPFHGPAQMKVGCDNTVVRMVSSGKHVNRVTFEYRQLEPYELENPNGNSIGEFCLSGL
# [5] = molecular target: T3, Short transient receptor potential channel 4 (Mus musculus, UniProt Q9QUQ5); test: block of DAMGO-driven TRPC4 calcium entry – cell-based, HEK293 TRPC4/mu-opioid, Fluo-4 calcium, dose response (AID 434942); type: functional;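 note: potency of inhibitors blocking the TRPC4 calcium response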
# T3 sequence (Q9QUQ5 whole entry): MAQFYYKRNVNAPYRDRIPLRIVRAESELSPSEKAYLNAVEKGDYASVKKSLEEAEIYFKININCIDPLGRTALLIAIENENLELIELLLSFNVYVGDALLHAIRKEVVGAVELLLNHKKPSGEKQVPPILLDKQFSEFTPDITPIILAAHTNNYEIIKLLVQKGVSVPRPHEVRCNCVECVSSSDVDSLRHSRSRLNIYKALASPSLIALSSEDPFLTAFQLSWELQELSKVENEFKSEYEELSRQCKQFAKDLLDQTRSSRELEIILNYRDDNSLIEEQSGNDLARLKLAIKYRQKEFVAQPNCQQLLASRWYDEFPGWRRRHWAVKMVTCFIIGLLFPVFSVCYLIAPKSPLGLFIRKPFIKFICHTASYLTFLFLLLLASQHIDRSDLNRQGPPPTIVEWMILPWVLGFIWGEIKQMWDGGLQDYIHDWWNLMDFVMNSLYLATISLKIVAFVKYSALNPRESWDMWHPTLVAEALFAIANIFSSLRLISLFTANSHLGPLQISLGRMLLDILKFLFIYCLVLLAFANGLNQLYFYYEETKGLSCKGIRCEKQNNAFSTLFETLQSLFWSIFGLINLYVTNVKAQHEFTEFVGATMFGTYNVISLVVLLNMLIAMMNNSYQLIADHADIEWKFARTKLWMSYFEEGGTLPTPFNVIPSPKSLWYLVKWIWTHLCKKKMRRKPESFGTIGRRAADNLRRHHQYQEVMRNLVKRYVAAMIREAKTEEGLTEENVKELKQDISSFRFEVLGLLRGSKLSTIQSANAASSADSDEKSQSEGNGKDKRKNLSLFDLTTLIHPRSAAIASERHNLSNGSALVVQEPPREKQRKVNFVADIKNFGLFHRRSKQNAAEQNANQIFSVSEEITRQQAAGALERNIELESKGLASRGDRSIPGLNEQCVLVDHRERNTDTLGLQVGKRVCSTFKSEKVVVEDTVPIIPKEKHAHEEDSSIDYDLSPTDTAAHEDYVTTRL
# [6] = molecular target: T2, Corticotropin-releasing factor receptor 2/Corticotropin-releasing factor-binding protein; test: Dose Response confirmation of uHTS hits for small molecule antagonists of the CRF-binding protein and CRF-R2 receptor complex.; type: functional; settings: read-out: IC50_Mean
# [7] = test system: HEK293; test: NOD2 signaling inhibitors in MDP-stimulated cells, cell-based, uHTS, luminescence (AID 2001); type: functional; settings: Homo sapiens
# [8] = test system: HEK293; test: cells; type: functional, cell-based; settings: Homo sapiens
# [9] = molecular target: T4, Microphthalmia-associated transcription factor (Homo sapiens, UniProt O75030); test: reducers of TRPM1 reporter luminescence, concentration series – cell-based, SK-MEL-5, cherry-picked, set 3, MITF inhibitor project, dose response (AID 493073); type: functional;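 note: SK-MEL-5 melanoma cells with luciferase driven by the MITF target TRPM1 promoter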
# T4 sequence (O75030 whole entry): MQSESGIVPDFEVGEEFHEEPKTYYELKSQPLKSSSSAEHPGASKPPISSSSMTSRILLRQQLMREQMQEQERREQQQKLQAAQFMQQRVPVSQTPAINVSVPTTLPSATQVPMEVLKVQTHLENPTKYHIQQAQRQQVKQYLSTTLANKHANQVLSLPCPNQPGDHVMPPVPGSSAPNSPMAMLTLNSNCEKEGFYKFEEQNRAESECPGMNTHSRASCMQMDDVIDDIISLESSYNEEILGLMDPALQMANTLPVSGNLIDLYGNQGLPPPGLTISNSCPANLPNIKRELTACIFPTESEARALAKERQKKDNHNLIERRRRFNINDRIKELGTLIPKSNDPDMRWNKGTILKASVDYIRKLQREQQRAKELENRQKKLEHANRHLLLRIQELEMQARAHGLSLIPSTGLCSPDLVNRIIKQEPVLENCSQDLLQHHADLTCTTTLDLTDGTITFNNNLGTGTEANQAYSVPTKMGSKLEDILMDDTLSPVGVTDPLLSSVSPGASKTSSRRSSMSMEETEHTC
# [10] = test system: HEK293; test: cells; type: functional, cell-based; settings: Homo sapiens; remark: listed apart in the source
# [11] = test system: HEK293; test: cells; type: functional, cell-based; settings: Homo sapiens; remark: listed apart in the source
# [12] = DRD fibroblast viability loss – cell-based, non-viral oncogenic, luminescence, dose response (AID 1934); type: functional; settings: Homo sapiens
# [13] = test system: HEK293; test: inhibition of NOD1-driven NF-kB reporter – cell-based, luminescence, uHTS, primary screen (AID 1578); type: functional; settings: Homo sapiens
# [14] = molecular target: T5, Replicative DNA helicase DnaB (Mycobacterium tuberculosis, UniProt P9WMR3); test: DnaB intein splicing inhibitors, dose response, biochemical, cell-free fluorescence (AID 449749); type: functional
# T5 sequence (P9WMR3 whole entry): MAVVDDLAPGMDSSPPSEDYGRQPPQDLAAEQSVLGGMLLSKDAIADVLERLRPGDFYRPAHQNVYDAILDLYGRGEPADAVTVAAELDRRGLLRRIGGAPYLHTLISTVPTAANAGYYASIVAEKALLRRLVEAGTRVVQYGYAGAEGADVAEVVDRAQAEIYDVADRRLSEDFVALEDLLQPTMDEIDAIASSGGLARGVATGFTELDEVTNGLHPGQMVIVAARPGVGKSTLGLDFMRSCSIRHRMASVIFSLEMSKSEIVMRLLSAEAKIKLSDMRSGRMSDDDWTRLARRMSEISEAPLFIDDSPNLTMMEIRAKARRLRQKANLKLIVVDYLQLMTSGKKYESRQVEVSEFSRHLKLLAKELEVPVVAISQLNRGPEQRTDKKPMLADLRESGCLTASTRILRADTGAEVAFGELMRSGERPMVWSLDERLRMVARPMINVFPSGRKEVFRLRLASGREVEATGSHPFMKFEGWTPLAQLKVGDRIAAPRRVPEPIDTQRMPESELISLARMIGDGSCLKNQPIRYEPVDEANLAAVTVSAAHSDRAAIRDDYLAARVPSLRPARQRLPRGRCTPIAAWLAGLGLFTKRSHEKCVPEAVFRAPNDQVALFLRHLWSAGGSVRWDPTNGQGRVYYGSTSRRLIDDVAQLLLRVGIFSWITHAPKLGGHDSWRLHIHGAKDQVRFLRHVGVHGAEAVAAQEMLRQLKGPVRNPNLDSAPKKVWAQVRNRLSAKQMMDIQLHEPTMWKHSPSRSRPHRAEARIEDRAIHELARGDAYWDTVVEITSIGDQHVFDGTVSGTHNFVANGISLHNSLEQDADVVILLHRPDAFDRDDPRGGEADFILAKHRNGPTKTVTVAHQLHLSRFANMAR
# [15] = molecular target: T6, Protein RecA (Mycobacterium tuberculosis, UniProt P9WHJ3); test: Fluorescence Cell-Free Homogeneous Dose Retest to Identify Inhibitors of RecA-Intein Splicing Activity. [Related pubchem assays (depositor defined):AID2097, AID2223, AID489010, AID492950]; type: functional
# T6 sequence (P9WHJ3 whole entry): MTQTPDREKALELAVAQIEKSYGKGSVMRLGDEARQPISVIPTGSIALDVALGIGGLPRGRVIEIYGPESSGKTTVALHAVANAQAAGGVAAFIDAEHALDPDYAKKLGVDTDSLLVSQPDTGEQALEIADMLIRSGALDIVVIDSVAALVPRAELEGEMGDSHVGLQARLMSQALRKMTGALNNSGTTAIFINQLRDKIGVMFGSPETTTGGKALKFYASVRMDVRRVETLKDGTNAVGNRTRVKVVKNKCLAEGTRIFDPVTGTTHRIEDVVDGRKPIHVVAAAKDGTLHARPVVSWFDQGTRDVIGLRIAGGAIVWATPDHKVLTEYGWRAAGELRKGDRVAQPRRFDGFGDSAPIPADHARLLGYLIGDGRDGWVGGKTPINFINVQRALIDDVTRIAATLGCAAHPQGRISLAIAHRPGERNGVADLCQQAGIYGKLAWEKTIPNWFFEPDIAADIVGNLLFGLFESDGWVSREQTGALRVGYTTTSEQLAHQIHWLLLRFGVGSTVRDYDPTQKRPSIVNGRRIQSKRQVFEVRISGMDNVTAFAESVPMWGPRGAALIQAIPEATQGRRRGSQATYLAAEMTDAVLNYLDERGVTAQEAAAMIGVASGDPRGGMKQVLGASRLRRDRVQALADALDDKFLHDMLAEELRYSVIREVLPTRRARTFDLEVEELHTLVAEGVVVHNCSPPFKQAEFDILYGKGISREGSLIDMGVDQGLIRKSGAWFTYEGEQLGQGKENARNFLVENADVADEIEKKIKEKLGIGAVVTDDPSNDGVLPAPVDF
# [16] = test system: BJ; test: cells; type: functional, cell-based; settings: Homo sapiens
# [17] = test system: BJ; test: BJ-TERT-LT-ST fibroblast viability loss – cell-based, RAS-independent, luminescence, dose response (AID 1935); type: functional; settings: Homo sapiens;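 note: BJ fibroblasts immortalized with TERT plus LT and ST oncogenes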
# [18] = molecular target: Nucleotide-binding oligomerization domain-containing protein 2 (Homo sapiens, UniProt Q9HC29); test: inhibition of NOD2-driven NF-kB reporter – cell-based, luminescence, uHTS, HEK293 (AID 1566); type: functional
# [19] = test system: BJ; test: BJ-TERT fibroblast viability loss – cell-based, RAS-independent, luminescence, dose response (AID 1933); type: functional; settings: Homo sapiens
structure (smiles),measurement,setting,value
O=C(Nc1ccccc1-c1ccccc1)c1ccc(Cl)c([N+](=O)[O-])c1,EC50,[1],> 71.5 µM (inactive)
CC(=O)Nc1cc(C(=O)NCc2ccco2)ccc1Sc1ccc(F)cc1,EC50,[1],> 71.5 µM (inactive)
Cc1ccc(S(=O)(=O)c2cn(CC(=O)Nc3ccccc3)c3ccc(F)cc3c2=O)cc1,IC50,[2],> 100 µM (not active)
same,IC50,[3],> 100 µM (inactive)
O=C(O)CN1C(c2ccccc2O)Nc2ccc(Br)cc2C1c1ccccc1 (configuration not stated),IC50,[2],> 100 µM (not active)
same,IC50,[3],> 100 µM (inactive)
same,EC50,[4],> 53 µM (inactive)
same,EC50,[5],5.31 µM (active)
same,IC50,[6],28.6 µM (active)
COCCN(C(=O)CCl)C(C(=O)NC1CCCCC1)c1ccccc1C (configuration not stated),IC50,[7],6.74 µM (active)
same,IC50,[8],14.9 µM (active)
same,AC50,[9],17.8 µM (active)
same,IC50,[10],> 20 µM (inactive)
same,IC50,[11],6.54 µM (active)
same,EC50,[12],10.5 µM (active)
same,EC50,[13],4.73 µM (active)
same,AC50,[14],25 µM (active)
same,EC50,[15],1.28 µM (active)
same,EC50,[16],14.4 µM (active)
same,EC50,[17],> 150 µM (inconclusive)
same,EC50,[18],> 20 µM (inactive)
same,EC50,[19],8.42 µM (active)
